Key:
Assay in all cases: BIO3-BIO1 mutant enzyme activity in the presence of herbicide, percentage inhibition (fluorometric DAPA assay)
Assay type in all cases: biochemical
Conditions in all cases: read-out: percentage inhibition
[1] = target: T1, Arabidopsis thaliana BIO3-BIO1 (BioDA) mutants (Arabidopsis thaliana, UniProt B0F481, C388M)
T1 construct: with the predicted N-terminal mitochondrial transit peptide removed; 6xHis-tag (N); thrombin cleavage site (N); made in house; host or cells: E. coli BL21 (DE3) bioA
Outline: (§1)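 Percentage inhibition compares activity at one of three herbicide concentrations against DMSO, from o-phthalaldehyde-derivatised DAPA fluorescence (ex 410, em 470 nm). Purified N-His BIO3-BIO1 variants (50 nM, E. coli-expressed) saw herbicide 10 min at 20 °C in pH 8.6 EPPS buffer, then 20 μM KAPA plus 100 μM spermidine for 75 min at 20 °C.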

[2] = target: T2, Arabidopsis thaliana BIO3-BIO1 (BioDA) mutants (Arabidopsis thaliana, UniProt B0F481, C388T)
T2 construct: with the predicted N-terminal mitochondrial transit peptide removed; 6xHis-tag (N); thrombin cleavage site (N); made in house; host or cells: E. coli BL21 (DE3) bioA
Outline: as §1

[3] = target: T3, Arabidopsis thaliana BIO3-BIO1 (BioDA) mutants (Arabidopsis thaliana, UniProt B0F481, DEL513-513)
T3 construct: with the predicted N-terminal mitochondrial transit peptide removed; 6xHis-tag (N); thrombin cleavage site (N); made in house; host or cells: E. coli BL21 (DE3) bioA
Outline: as §1

[4] = target: T4, Arabidopsis thaliana BIO3-BIO1 (BioDA) mutants (Arabidopsis thaliana, UniProt B0F481, F370L)
T4 construct: with the predicted N-terminal mitochondrial transit peptide removed; 6xHis-tag (N); thrombin cleavage site (N); made in house; host or cells: E. coli BL21 (DE3) bioA
Outline: as §1

[5] = target: T5, Arabidopsis thaliana BIO3-BIO1 (BioDA) mutants (Arabidopsis thaliana, UniProt B0F481, M419I)
T5 construct: with the predicted N-terminal mitochondrial transit peptide removed; 6xHis-tag (N); thrombin cleavage site (N); made in house; host or cells: E. coli BL21 (DE3) bioA
Outline: as §1

[6] = target: T6, Arabidopsis thaliana BIO3-BIO1 (BioDA) mutants (Arabidopsis thaliana, UniProt B0F481, P421E)
T6 construct: with the predicted N-terminal mitochondrial transit peptide removed; 6xHis-tag (N); thrombin cleavage site (N); made in house; host or cells: E. coli BL21 (DE3) bioA
Outline: as §1

[7] = target: T7, Arabidopsis thaliana BIO3-BIO1 (BioDA) mutants (Arabidopsis thaliana, UniProt B0F481, P529A)
T7 construct: with the predicted N-terminal mitochondrial transit peptide removed; 6xHis-tag (N); thrombin cleavage site (N); made in house; host or cells: E. coli BL21 (DE3) bioA
Outline: as §1

[8] = target: T8, Arabidopsis thaliana BIO3-BIO1 (BioDA) mutants (Arabidopsis thaliana, UniProt B0F481, Q517F)
T8 construct: with the predicted N-terminal mitochondrial transit peptide removed; 6xHis-tag (N); thrombin cleavage site (N); made in house; host or cells: E. coli BL21 (DE3) bioA
Outline: as §1

[9] = target: T9, Arabidopsis thaliana BIO3-BIO1 (BioDA) mutants (Arabidopsis thaliana, UniProt B0F481, R790C)
T9 construct: with the predicted N-terminal mitochondrial transit peptide removed; 6xHis-tag (N); thrombin cleavage site (N); made in house; host or cells: E. coli BL21 (DE3) bioA
Outline: as §1

[10] = target: T10, Arabidopsis thaliana BIO3-BIO1 (BioDA) mutants (Arabidopsis thaliana, UniProt B0F481, V354T)
T10 construct: with the predicted N-terminal mitochondrial transit peptide removed; 6xHis-tag (N); thrombin cleavage site (N); made in house; host or cells: E. coli BL21 (DE3) bioA
Outline: as §1

[11] = target: T11, Arabidopsis thaliana BIO3-BIO1 (BioDA) mutants (Arabidopsis thaliana, UniProt B0F481, Y511R)
T11 construct: with the predicted N-terminal mitochondrial transit peptide removed; 6xHis-tag (N); thrombin cleavage site (N); made in house; host or cells: E. coli BL21 (DE3) bioA
Outline: as §1

[12] = target: T12, Arabidopsis thaliana BIO3-BIO1 (BioDA) mutants (Arabidopsis thaliana, UniProt B0F481, Y511V)
T12 construct: with the predicted N-terminal mitochondrial transit peptide removed; 6xHis-tag (N); thrombin cleavage site (N); made in house; host or cells: E. coli BL21 (DE3) bioA
Outline: as §1

T1 sequence (B0F481 23-833 C388M): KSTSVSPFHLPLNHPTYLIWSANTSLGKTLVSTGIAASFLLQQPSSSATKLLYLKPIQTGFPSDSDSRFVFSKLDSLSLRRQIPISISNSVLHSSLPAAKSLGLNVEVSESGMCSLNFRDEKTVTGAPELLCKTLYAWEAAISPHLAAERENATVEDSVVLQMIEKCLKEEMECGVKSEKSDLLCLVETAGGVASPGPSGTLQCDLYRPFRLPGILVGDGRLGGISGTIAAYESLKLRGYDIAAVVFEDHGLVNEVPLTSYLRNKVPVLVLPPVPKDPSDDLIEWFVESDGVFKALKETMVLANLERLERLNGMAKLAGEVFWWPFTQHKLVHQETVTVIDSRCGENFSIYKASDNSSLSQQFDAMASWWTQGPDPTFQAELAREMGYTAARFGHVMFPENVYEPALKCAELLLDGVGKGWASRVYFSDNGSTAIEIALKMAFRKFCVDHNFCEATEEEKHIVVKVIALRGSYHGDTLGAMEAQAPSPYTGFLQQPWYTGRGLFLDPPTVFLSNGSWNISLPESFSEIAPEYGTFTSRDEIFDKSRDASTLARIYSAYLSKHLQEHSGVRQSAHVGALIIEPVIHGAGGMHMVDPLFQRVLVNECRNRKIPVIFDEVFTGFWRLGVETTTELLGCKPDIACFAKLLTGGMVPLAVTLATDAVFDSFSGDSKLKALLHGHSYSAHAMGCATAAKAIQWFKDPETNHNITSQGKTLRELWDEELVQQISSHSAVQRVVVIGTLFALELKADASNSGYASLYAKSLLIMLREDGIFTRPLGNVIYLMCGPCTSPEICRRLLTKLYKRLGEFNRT
T12 sequence (B0F481 23-833 Y511V): as the sequence (B0F481 23-833 C388M) above, with M366C, Y489V counted along it
T9 sequence (B0F481 23-833 R790C): as the sequence (B0F481 23-833 C388M) above, with M366C, R768C counted along it
T11 sequence (B0F481 23-833 Y511R): as the sequence (B0F481 23-833 C388M) above, with M366C, Y489R counted along it
T5 sequence (B0F481 23-833 M419I): as the sequence (B0F481 23-833 C388M) above, with M366C, M397I counted along it
T7 sequence (B0F481 23-833 P529A): as the sequence (B0F481 23-833 C388M) above, with M366C, P507A counted along it
T10 sequence (B0F481 23-833 V354T): as the sequence (B0F481 23-833 C388M) above, with V332T, M366C counted along it
T2 sequence (B0F481 23-833 C388T): as the sequence (B0F481 23-833 C388M) above, with M366T counted along it
T4 sequence (B0F481 23-833 F370L): as the sequence (B0F481 23-833 C388M) above, with F348L, M366C counted along it
T3 sequence (B0F481 other isoform, or with tags, fused parts or gaps DEL513-513): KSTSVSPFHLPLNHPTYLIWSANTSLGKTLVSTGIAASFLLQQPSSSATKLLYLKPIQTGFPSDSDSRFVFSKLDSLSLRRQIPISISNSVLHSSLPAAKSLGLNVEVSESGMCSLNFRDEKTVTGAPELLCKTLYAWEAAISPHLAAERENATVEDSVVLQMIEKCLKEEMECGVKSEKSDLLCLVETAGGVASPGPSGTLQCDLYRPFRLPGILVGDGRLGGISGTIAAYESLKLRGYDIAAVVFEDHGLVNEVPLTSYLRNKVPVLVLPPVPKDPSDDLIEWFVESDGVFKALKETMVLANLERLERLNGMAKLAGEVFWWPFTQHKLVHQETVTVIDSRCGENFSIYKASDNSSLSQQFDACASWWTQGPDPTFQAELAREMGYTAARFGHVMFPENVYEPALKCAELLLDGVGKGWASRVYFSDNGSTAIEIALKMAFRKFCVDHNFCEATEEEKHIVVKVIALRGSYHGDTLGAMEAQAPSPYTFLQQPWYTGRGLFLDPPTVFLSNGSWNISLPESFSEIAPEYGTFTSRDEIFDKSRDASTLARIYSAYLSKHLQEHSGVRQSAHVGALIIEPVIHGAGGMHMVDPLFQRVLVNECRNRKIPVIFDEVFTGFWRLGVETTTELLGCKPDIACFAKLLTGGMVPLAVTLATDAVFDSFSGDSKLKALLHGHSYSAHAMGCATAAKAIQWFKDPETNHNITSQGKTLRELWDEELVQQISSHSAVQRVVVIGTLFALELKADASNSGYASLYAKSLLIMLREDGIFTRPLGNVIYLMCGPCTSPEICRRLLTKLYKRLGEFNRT
T8 sequence (B0F481 23-833 Q517F): as the sequence (B0F481 23-833 C388M) above, with M366C, Q495F counted along it
T6 sequence (B0F481 23-833 P421E): as the sequence (B0F481 23-833 C388M) above, with M366C, P399E counted along it

CCn1c(Cn2ccc(C(F)(F)F)n2)cc(=O)c(C(=O)O)c1-c1ccc(Cl)c(Cl)c1 [Compound L, 2-(3,4-dichlorophenyl)-1-ethyl-4-oxo-6-[[3-(trifluoromethyl)pyrazol-1-yl]methyl]pyridine-3-carboxylic acid]
inhibition at 0.01 µM [1]: 10%
inhibition at 0.075 µM [1]: 18%
inhibition at 0.5 µM [1]: 34%
inhibition at 0.01 µM [2]: 19%
inhibition at 0.075 µM [2]: 58%
inhibition at 0.5 µM [2]: 92%
inhibition at 0.01 µM [3]: 31%
inhibition at 0.075 µM [3]: 30%
inhibition at 0.5 µM [3]: 54%
inhibition at 0.01 µM [4]: 0%
inhibition at 0.075 µM [4]: 14%
inhibition at 0.5 µM [4]: 38%
inhibition at 0.01 µM [5]: 6%
inhibition at 0.075 µM [5]: 1%
inhibition at 0.5 µM [5]: 30%
inhibition at 0.01 µM [6]: 0%
inhibition at 0.075 µM [6]: 0%
inhibition at 0.5 µM [6]: 41%
inhibition at 0.01 µM [7]: 0%
inhibition at 0.075 µM [7]: 0%
inhibition at 0.5 µM [7]: 60%

CCOC(=O)c1nn(-c2ccc3c(c2)OC(F)(F)C(F)(F)O3)c2cccc(C(C)=O)c2c1=O [Compound A, ethyl 5-acetyl-4-oxo-1-(2,2,3,3-tetrafluoro-1,4-benzodioxin-6-yl)cinnoline-3-carboxylate]
inhibition at 1 µM [1]: 31%
inhibition at 1 µM [2]: 31%
inhibition at 1 µM [3]: 29%
inhibition at 1 µM [4]: 15%
inhibition at 1 µM [5]: 7%
inhibition at 1 µM [6]: 0%
inhibition at 1 µM [7]: 0%
inhibition at 1 µM [8]: 20%
inhibition at 1 µM [9]: 2%
inhibition at 1 µM [10]: 61%
inhibition at 1 µM [11]: 46%
inhibition at 1 µM [12]: 45%

CCn1c(-c2ccc(Cl)c(Cl)c2)c(C(=O)O)c(=O)c2cc(F)ccc21 [Compound M, 2-(3,4-dichlorophenyl)-1-ethyl-6-fluoro-4-oxo-quinoline-3-carboxylic acid]
inhibition at 0.2 µM [1]: 16%
inhibition at 1 µM [1]: 24%
inhibition at 5 µM [1]: 41%
inhibition at 0.2 µM [2]: 48%
inhibition at 1 µM [2]: 78%
inhibition at 5 µM [2]: 95%
inhibition at 0.2 µM [3]: 60%
inhibition at 1 µM [3]: 83%
inhibition at 5 µM [3]: 95%
inhibition at 0.2 µM [4]: 0%
inhibition at 1 µM [4]: 25%
inhibition at 5 µM [4]: 80%
inhibition at 0.2 µM [5]: 2%
inhibition at 1 µM [5]: 21%
inhibition at 5 µM [5]: 20%
inhibition at 0.2 µM [6]: 0%
inhibition at 1 µM [6]: 47%
inhibition at 5 µM [6]: 62%
inhibition at 0.2 µM [7]: 0%
inhibition at 1 µM [7]: 25%
inhibition at 5 µM [7]: 68%
inhibition at 0.2 µM [8]: 0%
inhibition at 1 µM [8]: 29%
inhibition at 5 µM [8]: 70%
inhibition at 0.2 µM [9]: 0%
inhibition at 1 µM [9]: 9%
inhibition at 5 µM [9]: 49%
inhibition at 0.2 µM [10]: 4%
inhibition at 1 µM [10]: 47%
inhibition at 5 µM [10]: 88%
inhibition at 0.2 µM [11]: 74%
inhibition at 1 µM [11]: 96%
inhibition at 5 µM [11]: 99%
inhibition at 0.2 µM [12]: 33%
inhibition at 1 µM [12]: 88%
inhibition at 5 µM [12]: 99%

CCn1c(C)c(-c2ccc(F)cc2F)c(=O)c(C(=O)O)c1-c1ccc(Cl)c(Cl)c1 [Compound C, 2-(3,4-dichlorophenyl)-5-(2,4-difluorophenyl)-1-ethyl-6-methyl-4-oxo-pyridine-3-carboxylic acid]
inhibition at 0.2 µM [1]: 20%
inhibition at 1 µM [1]: 17%
inhibition at 5 µM [1]: 69%
inhibition at 0.2 µM [2]: 49%
inhibition at 1 µM [2]: 78%
inhibition at 5 µM [2]: 95%
inhibition at 0.2 µM [3]: 69%
inhibition at 1 µM [3]: 90%
inhibition at 5 µM [3]: 98%
inhibition at 0.2 µM [4]: 19%
inhibition at 1 µM [4]: 24%
inhibition at 5 µM [4]: 82%
inhibition at 0.2 µM [5]: 1%
inhibition at 1 µM [5]: 7%
inhibition at 5 µM [5]: 53%
inhibition at 0.2 µM [6]: 37%
inhibition at 1 µM [6]: 31%
inhibition at 5 µM [6]: 0%
inhibition at 0.2 µM [7]: 4%
inhibition at 1 µM [7]: 25%
inhibition at 5 µM [7]: 71%
inhibition at 0.2 µM [8]: 29%
inhibition at 1 µM [8]: 55%
inhibition at 5 µM [8]: 85%
inhibition at 0.2 µM [9]: 0%
inhibition at 1 µM [9]: 11%
inhibition at 5 µM [9]: 62%
inhibition at 0.2 µM [10]: 0%
inhibition at 1 µM [10]: 56%
inhibition at 5 µM [10]: 92%
inhibition at 0.2 µM [11]: 80%
inhibition at 1 µM [11]: 99%
inhibition at 5 µM [11]: 99%
inhibition at 0.2 µM [12]: 28%
inhibition at 1 µM [12]: 94%
inhibition at 5 µM [12]: 97%
